Data on 29 compounds can be found in ChEMBL document CHEMBL1134265, “2-Aryl indole NK1 receptor antagonists: optimisation of the 2-aryl ring and the indole nitrogen substituent” (Bioorg Med Chem Lett, 2001).

The subject of test [1] is Gerbillinae. As to the kind of experiment: In vivo inhibitory dose against gerbil foot-tapping after iv administration prior to icv infusion of GR-73632 in vehicle-treated animals. The class given is functional. As to conditions: read-out: ID50 (the source's name).
The target in test [2] is T1, Substance-P receptor (Homo sapiens, UniProt P25103). The experiment in a line: Concentration required for displacement of [125I]-labeled substance P from cloned hNK1 receptor expressed in CHO cells(*). The class given is cell-based.
T1 sequence (P25103 whole entry): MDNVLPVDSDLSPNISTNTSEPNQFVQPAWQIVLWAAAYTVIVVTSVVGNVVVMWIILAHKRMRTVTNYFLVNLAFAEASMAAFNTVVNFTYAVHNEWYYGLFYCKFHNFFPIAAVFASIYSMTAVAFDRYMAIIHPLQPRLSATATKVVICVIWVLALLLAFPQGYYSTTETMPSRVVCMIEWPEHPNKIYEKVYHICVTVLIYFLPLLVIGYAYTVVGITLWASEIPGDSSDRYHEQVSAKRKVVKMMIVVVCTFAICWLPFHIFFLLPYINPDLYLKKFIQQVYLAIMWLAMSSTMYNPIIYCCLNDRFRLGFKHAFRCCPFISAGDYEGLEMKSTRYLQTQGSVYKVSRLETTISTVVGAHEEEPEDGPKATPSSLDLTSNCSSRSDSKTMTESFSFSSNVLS
Test [3] addresses T1, Substance-P receptor. The experiment in a line: Tested for displacement of [125I]-labeled substance P from cloned hNK1 receptor expressed in CHO cells at 100 nM. The class given is cell-based. (Loss of bound radioactivity is the signal in a displacement assay; it reports binding, not function.)
The test system of test [4] is Gerbillinae. As to the kind of experiment: In vivo percent inhibition of gerbil foot-tapping after 3 mg/kg, iv administration prior to icv infusion of GR-73632 in vehicle-treated animals. The class given is functional.
For test [5], the target named is T1, Substance-P receptor. The experiment in a line: Tested for displacement of [125I]-labeled substance P from cloned hNK1 receptor expressed in CHO cells (*). It is filed as cell-based. As to conditions: concentration not given here.
Test [6] has as its system Gerbillinae. The experiment in a line: In vivo inhibitory dose against gerbil foot-tapping after iv administration prior to icv infusion of GR-73632 for a duration of 5 min in vehicle-treated animals. It is filed as functional. The note with it: read-out: ID50 (the source's name).

Each structure is given as a SMILES string.

Turning to `Cn1c(-c2ccc(C(F)(F)F)cn2)c(CCC(=O)N2CCC(O)(Cc3ccccc3)CC2)c2cc(Cl)ccc21`, the ED50 with Gerbillinae [1] was 0.1 mg/kg. Besides, the IC50 on Substance-P receptor [2] was 0.12 nM. Compound `COc1ccc(-c2[nH]c3ccc(C)cc3c2CCC(=O)N2CCN(c3ccccc3OC)CC2)cc1` displayed an IC50 at Substance-P receptor [2] of 1.5 nM. For `COc1ccccc1N1CCN(C(=O)CCc2c3n(c4ccc(C)cc24)Cc2ccccc2-3)CC1`, at Substance-P receptor [3], the inhibition amounted to 55%. On to `COc1ccccc1N1CCN(C(=O)CCc2c(-c3ccc(Br)cc3)[nH]c3ccc(C)cc23)CC1`, for which, in the test with Gerbillinae [4], the inhibition in vivo at 3 mg/kg was determined as 46%.

The compound `COc1ccccc1N1CCN(C(=O)CCc2c(-c3ccc(Cl)cc3)n(C)c3ccc(Cl)cc23)CC1` gave an IC50 on Substance-P receptor [2] of 0.28 nM. Same read-out and setting: the result for `COc1ccccc1N1CCN(C(=O)CCc2c(-c3ccccc3Br)[nH]c3ccc(C)cc23)CC1` reads 89 nM. Take `Cc1ccc(-c2c(CCC(=O)N3CCC(O)(Cc4ccccc4)CC3)c3cc(Cl)ccc3n2C)cn1`: in the test on Gerbillinae [1], the ED50 was 0.68 mg/kg. Besides, at Substance-P receptor [2], the IC50 worked out at 0.12 nM. At Substance-P receptor [2], `COc1ccccc1N1CCN(C(=O)CCc2c(-c3ccc(C(F)(F)F)cc3)[nH]c3ccc(C)cc23)CC1` gave an IC50 of 0.44 nM. `COc1ccccc1N1CCN(C(=O)CCc2c(-c3ccc(Cl)cc3)[nH]c3ccc(C)cc23)CC1`: the inhibition in vivo at 3 mg/kg in the test on Gerbillinae [4] was 22%. For `Cn1c(-c2ccccn2)c(CCC(=O)N2CCC(O)(Cc3ccccc3)CC2)c2cc(Cl)ccc21`, the IC50 at Substance-P receptor [2] was determined as 2.9 nM. Compound `COc1ccccc1N1CCN(C(=O)CCc2c(-c3ccncc3)[nH]c3ccc(C)cc23)CC1` gave an inhibition on Substance-P receptor [5] of 58%. Take `COc1ccccc1N1CCN(C(=O)CCc2c(-c3ccc(C(C)(C)C)cc3)[nH]c3ccc(C)cc23)CC1`: the IC50 on Substance-P receptor [2] worked out at 6.3 nM. In the case of `COc1ccccc1N1CCN(C(=O)CCc2c(-c3ccc(Br)cc3)n(C)c3ccc(C)cc23)CC1`, at Substance-P receptor [2], the IC50 was 0.14 nM. The compound further came in with an inhibition in vivo at 3 mg/kg in the test with Gerbillinae [4] of 100%. Further, in the test with Gerbillinae [6], the ED50 turned out to be 0.5 mg/kg. Compound `COc1ccccc1N1CCN(C(=O)CCc2c(-c3ccc(Cl)cc3)n(CC3CC3)c3ccc(Cl)cc23)CC1` gave an IC50 on Substance-P receptor [2] of 103 nM.

With `COc1ccccc1N1CCN(C(=O)CCc2c(-c3ccc(Cl)cc3)n(C(C)C)c3ccc(Cl)cc23)CC1`, the IC50 at Substance-P receptor [2] came out at 5.2 nM. Regarding `COc1ccccc1N1CCN(C(=O)CCc2c(-c3ccc(C(C)C)cc3)[nH]c3ccc(C)cc23)CC1`, at Substance-P receptor [2], the IC50 came out at 0.2 nM. Moreover, the inhibition in vivo at 3 mg/kg with Gerbillinae [4] turned out to be 100%. `COc1ccccc1N1CCN(C(=O)CCc2c(-c3ccc(Cl)cc3)n(CCO)c3ccc(Cl)cc23)CC1`: the half-maximal inhibitory concentration (IC50) at Substance-P receptor [2] was 0.97 nM. For the compound `COc1ccccc1N1CCN(C(=O)CCc2c(-c3ccccc3)[nH]c3ccc(C)cc23)CC1`, the IC50 on Substance-P receptor [2] came to 6.1 nM. Compared with the last compound, the IC50 is about 6.3-fold higher. `Cn1c(-c2cccnc2)c(CCC(=O)N2CCC(O)(Cc3ccccc3)CC2)c2cc(Cl)ccc21` showed an IC50 on Substance-P receptor [2] of 0.92 nM. This IC50 is about 6.6-fold lower than that of the compound before. Consider `COc1cccc(-c2[nH]c3ccc(C)cc3c2CCC(=O)N2CCN(c3ccccc3OC)CC2)c1`, for which, at Substance-P receptor [2], the IC50 was found to be 8 nM. This IC50 is about 8.7-fold higher than that of the compound before.

On to `COc1ccccc1N1CCN(C(=O)CCc2c(-c3ccc(C(C)C)cc3)n(C)c3ccc(C)cc23)CC1`, for which the IC50 at Substance-P receptor [2] was 0.33 nM. Also, in the test on Gerbillinae [4], the inhibition in vivo at 3 mg/kg came to 100%. Compound `COc1ccccc1N1CCN(C(=O)CCc2c[nH]c3ccc(C)cc23)CC1` showed an inhibition at Substance-P receptor [5] of 18%. Turning to `COC(=O)Cn1c(-c2ccc(Cl)cc2)c(CCC(=O)N2CCN(c3ccccc3OC)CC2)c2cc(Cl)ccc21`, the half-inhibitory concentration (IC50) at Substance-P receptor [2] worked out at 15 nM. This lies in the double-digit nanomolar range.

With `COc1ccccc1N1CCN(C(=O)CCc2c(-c3ccc(Cl)cc3)n(C)c3ccc(C)cc23)CC1`, the concentration for half-maximal inhibition (IC50) on Substance-P receptor [2] was 0.11 nM. The compound also had an inhibition in vivo at 3 mg/kg in the test on Gerbillinae [4] of 100%. Compound `COc1ccccc1N1CCN(C(=O)CCc2c(-c3ccc(Cl)cc3)n(Cc3ccccc3)c3ccc(Cl)cc23)CC1` came in with an IC50 at Substance-P receptor [2] of 96 nM. As to `COc1ccccc1N1CCN(C(=O)CCc2c(-c3cccc(Br)c3)[nH]c3ccc(C)cc23)CC1`, at Substance-P receptor [5], the inhibition was 37%. At Substance-P receptor [2], `COc1ccccc1-c1[nH]c2ccc(C)cc2c1CCC(=O)N1CCN(c2ccccc2OC)CC1` yielded an IC50 of 82 nM. In other words, the double-digit nanomolar range. Consider `COc1ccccc1N1CCN(C(=O)CCc2c(-c3ccc(C(F)(F)F)cc3)n(C)c3ccc(C)cc23)CC1`, for which, on Substance-P receptor [2], the IC50 came out at 0.14 nM. This compound yielded an inhibition in vivo at 3 mg/kg in the test on Gerbillinae [4] of 93%.

As to `COc1ccccc1N1CCN(C(=O)CCc2c(-c3ccc(-c4ccccc4)cc3)[nH]c3ccc(C)cc23)CC1`, at Substance-P receptor [2], the concentration for half-maximal inhibition (IC50) was 7.6 nM.

Usually IC50 stands for the concentration needed to halve the response being measured. One may read the inhibition as the percentage by which the read-out fell short of the control. The inhibition in vivo is how much of the control response was suppressed. A low value points to little suppression.
